Measurements from ChEMBL document CHEMBL4130453, “Discovery of an Isothiazole-Based Phenylpropanoic Acid GPR120 Agonist as a Development Candidate for Type 2 Diabetes” (ACS Med Chem Lett, 2017).

Experiments:
[1] = target: Free fatty acid receptor 4 (Homo sapiens, UniProt Q5NUL3); assay: Agonist activity at human GPR120 short splice variant expressed in HEK293 cells assessed as increase in intracellular calcium flux incubated for 30 mins measured for 300 secs at 1 sec interval by Fluo-4 NW dye based FLIPR assay; type: functional, cell-based
[2] = Metabolic stability in mouse liver microsomes assessed as parent compound remaining measured at 10 mins; type: ADME, microsome; conditions: liver microsomes, read-out: Stability
[3] = Metabolic stability in rat liver microsomes assessed as parent compound remaining measured at 10 mins; type: ADME, microsome; conditions: liver microsomes, read-out: Stability
[4] = Metabolic stability in human liver microsomes assessed as parent compound remaining measured at 10 mins; type: ADME, microsome; conditions: read-out: Stability
[5] = target: T1, Free fatty acid receptor 4 (Homo sapiens, UniProt Q5NUL3); assay: Agonist activity at PK-tagged human GPR120 long isoform expressed in CHOK1 cells co-expressing EA-tagged beta-arrestin assessed as beta-gal enzyme complex formation after 90 mins by enzyme fragment complementation assay; type: cell-based
T1 sequence (Q5NUL3 whole entry): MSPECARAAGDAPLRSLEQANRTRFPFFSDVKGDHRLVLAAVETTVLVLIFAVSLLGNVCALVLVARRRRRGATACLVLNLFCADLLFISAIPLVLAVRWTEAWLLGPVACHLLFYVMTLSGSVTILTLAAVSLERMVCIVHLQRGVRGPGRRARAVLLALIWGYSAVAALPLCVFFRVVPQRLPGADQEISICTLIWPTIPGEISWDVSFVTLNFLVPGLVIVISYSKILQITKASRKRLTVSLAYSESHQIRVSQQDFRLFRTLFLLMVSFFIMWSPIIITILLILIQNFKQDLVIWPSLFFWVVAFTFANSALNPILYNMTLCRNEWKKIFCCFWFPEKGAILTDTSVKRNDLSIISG

Mus musculus = assay: Antidiabetic activity in diet-induced obese C57BL/6 mouse assessed as reduction in plasma glucose delta AUC level at 1 mg/kg, po administered 30 mins prior to glucose challenge measured 90 mins post glucose challenge by OGTT relative to control; type: functional; set-up: scale not given: the % may be the effect or the level left

Compound	EC50 [1] [nM]	also measured
Cc1snc(-c2ccc(Cl)cc2)c1COc1ccc(CCC(=O)O)c(C)c1C	106	remaining at 10 min [2]: 35%; remaining at 10 min [3]: 57%; remaining at 10 min [4]: 74%; EC50 [5]: 128 nM
COc1ccc(-c2nsc(C(F)(F)F)c2COc2c(F)cc(CCC(=O)O)cc2F)cc1	75	–
Cc1c(CCC(=O)O)ccc(OCc2c(C(F)(F)F)nsc2-c2ccc(Cl)cc2)c1C	94	EC50 [5]: 105 nM
O=C(O)CCc1cc(F)c(OCc2c(-c3ccc(C(F)(F)F)cc3)nsc2C(F)(F)F)c(F)c1	108	–
CCc1ccc(-c2nsc(C(C)C)c2COc2ccc(CCC(=O)O)c(C)c2C)cc1	1640	–
O=C(O)CCc1cc(F)c(OCc2c(-c3ccccc3)nsc2C(F)(F)F)c(F)c1	160	–
Cc1c(CCC(=O)O)cc(F)c(OCc2c(-c3ccc(Cl)cc3)nsc2C(F)(F)F)c1F	99	–
Cc1c(CCC(=O)O)ccc(OCc2csnc2-c2ccc(Cl)cc2)c1C	215	remaining at 10 min [2]: 73%; remaining at 10 min [3]: 71%; remaining at 10 min [4]: 86%
N#Cc1ccc(-c2nsc(C(F)(F)F)c2COc2c(F)cc(CCC(=O)O)cc2F)cc1	672	–
O=C(O)CCc1c(F)c(F)c(OCc2c(-c3ccc(Cl)cc3)nsc2C(F)(F)F)c(F)c1F	173	–
O=C(O)CCc1cc(F)c(OCc2c(-c3ccc(Cl)cc3)nsc2C(F)(F)F)c(F)c1F	104	–
CCc1ccc(-c2sncc2COc2ccc(CCC(=O)O)c(C)c2C)cc1	191	–
N#C[C@@H]1C[C@@H]2C[C@@H]2N1C(=O)[C@@H](N)C12CC3CC(CC(O)(C3)C1)C2 [SAXAGLIPTIN ANHYDROUS]	–	Activity (Mus musculus): 87%
CCc1ccc(-c2nsc(C(F)(F)F)c2COc2c(F)cc(CCC(=O)O)cc2F)cc1	34	–
CCc1ccc(-c2nsc(OC)c2COc2ccc(CCC(=O)O)c(C)c2C)cc1	920	–
